Data on two molecules can be found in US7728146B2, “Enzyme inhibitors” (Probiodrug AG, priority 2006, dated 2010).

Broadly, the IC50 is the concentration that gives 50% inhibition. Low values mean higher potency, high ones lower potency. As usually defined, the Ki is a dissociation constant, usually derived from enzyme kinetics or from competition with a known ligand. Read a high Ki as weaker binding. As a reminder, the Papp A→B is the apparent permeability from the apical to the basolateral side of a cell layer. The Papp B→A is the apparent permeability from the basolateral to the apical side of a cell layer.

The target in data set [1] is dipeptidyl peptidase (DP IV) (UniProt P27487). The experiment in a line: Determination of IC50 against DP IV (hydrolysis of Gly-Pro-pNA). The format is biochemical, porcine kidney or recombinant human. Conditions: compounds obtained by preparative synthesis. As for the experimental part: Determination of IC50 Against DP IV
Substances are screened for inhibition of dipeptidyl peptidase (DP IV) by their ability to inhibit the hydrolysis of the DP IV specific substrate Glycyl-Prolyl-4-Nitroanilide (Gly-Pro-pNA). All compounds are diluted in DMSO and IC50 will be determined with 11 serial dilutions (1:2) starting with an final concentration of 100 μM. The final DMSO concentration in the assay is 5% (v/v). The method was automated using a Tecan Genesis Freedom liquid handler and a Genius Pro (Tecan) microplate reader.
A stock solution of 0.102 M HEPES is prepared. Ionic strength (I=0.32) is adjusted by KCl and pH (pH 7.6) by KOH.
2.16 mM solution of Gly-Pro-pNA in deionized water is prepared.
All samples are dissolved in DMSO preparing a 10 mM stock solution.
DP IV from porcine kidney (pDP IV) or recombinant human DP IV (rhDP IV) is diluted in HEPES buffer to a final activity of approximately 40-50 μU*ml^−1. The DP IV is stored in a cooling rack (4° C.) on the liquid handler.
The assay may becarried out at room temperature using Freedom liquid handler connected with a Genios Pro microplate reader. Each sample is measured in duplicate. Each sample stock solution is prediluted with DMSO in a ratio of 1:5 in a polypropylen 96-well plate. From this predilution 10 serial (1:2) dilutions in DMSO are prepared. 13.5 μl of the 11 DMSO dilutions and DMSO alone are transferred to the measurement microplate (duplicates) and 86.5 μl water, 100 μl HEPES buffer and 50 μl substrate solution are added to each well. The enzymatic reaction is started by addition of 20 μl enzyme solution to each well, and then the microplate is immediately transferred to the microplate reader.
After short mixing (20 s) the release of 4-Nitroanilin (pNA) is monitored at 405 nm for 30 cycles (approx. 18 min).
Post assay calculations are done by the Magellan (Tecan) and Graphit Software. The linear slopes are calculated for each well and averaged for the duplicates. The residue activities are calculated in relation to a sample containing only solvent instead of inhibitor and expressed in %. Residue activities are plotted against the log of inhibitor concentrations and IC50 is calculated by an 4-parameter fitting ranging from 0 to 100%.

The next data set concerns the target DP IV (Homo sapiens, UniProt P27487). The experiment in a line: Ki and inhibition type, DP IV. The format is biochemical. Conditions: compounds obtained by preparative synthesis. As for the experimental part: Measurement of DP IV activities for Ki determination is carried out as described for IC50. For Ki determination samples were analysed in triplicates. 7 serial dilutions of the inhibitor (range calculated from the IC50 determination) in water are analyzed with 4 serial dilutions of the substrate.
Data are analysed by non-linear regression to the inhibitor equations using Graphit software. Ki-value and inhibition type are determined using the inhibitor equation (competitive, partiell competitive, non-competitive) which gives the best fitting results. […]

A further data set addresses DPII (Homo sapiens, UniProt Q9UHL4). The experiment in a line: DPII assay. The format is biochemical. The method, then:
(§1) Determination of IC50 values for DPII and DP9 are done similarly as described for DP IV.
For DPII instead of the HEPES buffer a 0.2 M sodium acetate buffer pH 5.5 is used. As substrate Gly-Pro-AMC is used in a final concentration of 1 mM.

The next data set deals with DP9 (Homo sapiens, UniProt Q86TI2). In words: DP9 assay. The format is biochemical. As for the experimental part: as §1
Sequence of DP9 (Q86TI2 whole entry, species assumed): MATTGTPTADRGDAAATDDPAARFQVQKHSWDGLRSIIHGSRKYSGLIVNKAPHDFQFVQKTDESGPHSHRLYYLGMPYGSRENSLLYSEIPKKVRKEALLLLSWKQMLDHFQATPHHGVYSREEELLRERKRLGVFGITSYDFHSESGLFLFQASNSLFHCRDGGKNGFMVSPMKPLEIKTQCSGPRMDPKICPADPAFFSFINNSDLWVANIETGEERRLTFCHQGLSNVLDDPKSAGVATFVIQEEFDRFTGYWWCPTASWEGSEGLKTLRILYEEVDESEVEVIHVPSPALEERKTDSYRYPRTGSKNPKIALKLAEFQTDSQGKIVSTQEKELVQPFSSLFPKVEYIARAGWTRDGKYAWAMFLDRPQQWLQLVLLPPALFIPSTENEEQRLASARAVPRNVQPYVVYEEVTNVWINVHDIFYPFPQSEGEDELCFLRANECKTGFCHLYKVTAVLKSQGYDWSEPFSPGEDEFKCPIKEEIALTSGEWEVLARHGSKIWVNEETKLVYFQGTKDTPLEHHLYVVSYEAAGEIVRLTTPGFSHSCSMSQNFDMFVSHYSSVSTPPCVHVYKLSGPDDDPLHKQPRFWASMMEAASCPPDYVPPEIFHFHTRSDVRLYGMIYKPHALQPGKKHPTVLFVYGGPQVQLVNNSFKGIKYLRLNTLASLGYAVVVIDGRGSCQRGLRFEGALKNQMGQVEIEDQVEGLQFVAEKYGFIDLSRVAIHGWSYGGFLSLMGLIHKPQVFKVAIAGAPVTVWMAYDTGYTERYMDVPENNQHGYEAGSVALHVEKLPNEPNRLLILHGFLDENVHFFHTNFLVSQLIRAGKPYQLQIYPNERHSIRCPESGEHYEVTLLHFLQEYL
For DP9 Gly Pro-AMC is used as substrate in a final concentration of 0.25 mM.

Data set [2] concerns liver cell carcinoma cell line Hep-G2. The experiment in a line: Cytotoxicity screening and LD50 determination on Hep-G2 (LDH, CytoTox-One). Conditions: 100 μM. The format is cell-based. As for the experimental part:
Cytotoxicity of the compounds may be screened using the liver cell carcinoma cell line Hep-G2.
After 24 h of cultivation in a 96 well plate (50 000 cells/well) compounds (dissolved in DMSO) are added and cytotoxicity and vitality of the cells are analysed after another 24 h of cultivation using the CytoTox-One Homogenoeous membrane toxicity assay (Promega).
Three concentrations (100 μM, 2 μM, 40 nM) of each compound are analysed in triplicates. The final DMSO concentration was 1%.
For cytotoxicity the LDH activity in the cell culture media after 24 h of incubation are analysed. The untreated control is set to 0% cytotoxicity. For the 100% value LDH activity of lysed untreated cells are analysed.
For viability cell culture media are removed from the cells and all cells are lysed using the lysis buffer. LDH activity is determined and untreated control is set to 100% viability.
For determination of LD50 the liver carcinoma cell line HEP-G2 and the neuroblastoma cell line SY5Y may be used. The effect of 8 serial dilutions of the compounds (highest concentration 1 mM) is investigated as described above.
The cytotoxicity of certain example compounds (in each case prepared by preparative synthesis) was screened using Hep-G2 cells. Compounds were tested in concentrations of 100 μM, 2 μM and 40 nM.

Another data set can be described thus: Caco-2 transport assay. Format: in vitro ADME, human. Conditions: human, Caco-2, pH 7.5. The method, then:
(§2) The concentration of compounds in the Caco experiments may be determined from their potency to inhibit recombinant human DP IV.
(§3) Reaction is started by addition of 20 μl rhDP IV and release of pNA was monitored at 405 nm. Samples are analyzed in several dilutions (undiluted, 1:10, 1:[…]). Dilutions are done in the Caco assay buffer. Activity measured with Caco-assay buffer alone is set to 100% and inhibitor concentration is calculated from the dilutions resulting in 20 to 80% inhibition according to the equation for competitive inhibition.
(§4) [formula] • I=inhibitor concentration • v0=velocity of the reaction without inhibitor (Caco assay buffer alone) • vi=velocity of the reaction with inhibitor sample • Ki=Ki-value of the compound • DF=dilution factor of the sample Transport Assay
(§5) The human colon adenocarcinome cell line Caco-2 are grown in 6- or 24-transwell microplates (Costar) for 21 days with MEM-alpha containing 10% FBS and 0.5% Gentamycin (Invitrogen). After 21 days of cultivation integrity of the cell layer are assessed by measurement of the transepitelial electrical resistance.
(§6) Transport measurements are carried out in triplicates at a pH of 7.5. For each compound and direction (apical to basal (a-b), basal to apical (b-a)) two separate experiments are done. Samples are collected from the donor and acceptor compartments at the beginning of the experiment and after 60 min (for 6-well plates, Donor at 0 and 120 min, Acceptor at 15, 30, 60 and 120 min).
(§7) Samples are analyzed in several dilutions for their ability to inhibit human recombinant DP IV and compound concentrations may be calculated using the prior determined Ki-value (see above).
(§8) The permeability coefficient Papp is calculated according to the following equation:
(§9) [formula] • VA=Volume of the acceptor compartment • A=Area of the transwell membrane • t=sampling time • cAt=concentration in the acceptor compartment at sampling time • CDO=concentration in the donor compartment at t=0
(§10) Papp-values>1e-5 cm/s are assessed as good permeable, value<1e-6 cm/s as not permeable. Papp-values in between as medium permeable. Compounds where no significant difference were found between a-b and b-a transport are assessed to be passive transported.
(In general: Passage across Caco-2 layers is used to estimate intestinal permeability.)

A further data set concerns Caco-2 monolayer. The experiment in a line: Caco-2 transport assay. The format is in vitro ADME, human. The settings on record: assessment of permeability and transport type. As for the experimental part: as §2, §3, §4, §5, §6, §7, §8, §9, §10
The next data set deals with male Sprague Dawley rats. In words: Circadian courses of activity, feeding and drinking behaviour; body weight, food and fluid consumption during chronic administration. Format: in vivo, rat. Conditions: vs vehicle. The method, then: Example 130b as hydrochloride salt was dissolved in tap water in concentrations of 0.03, 0.1 and 0.3 mg/ml. Assuming a daily fluid intake of approx. 30 ml per animal (animal's weight: approx. 300 g), these concentrations should result in doses of approx. 3, 10 and 30 mg/kg/day. The solutions were prepared freshly every day. During chronic administration, solution offer was limited to 40 ml per day for each animal.
Imipramine was dissolved 0.5% Natrosol and administered once daily i.p. for 8 days (test group TG 11, see below) with a dose of 15 mg/kg/day in a volume of 1 ml/kg.
216 male Sprague Dawley rats. The animals were 6 weeks old at the start of the study. They were housed in groups of 4 animals (“acute animals”) or in single cages (“chronic animals”) at 12 h/12 h light/dark (start of the light phase at 2 a.m.), 20° C., 60% rH. Animals were provided by Elevage Janvier, France.
During the 7 days lasting period of chronic compound administration, animals were kept singly. On the first day they were kept in single Macrolon home cages. On the next day they were transferred to activity monitoring cages and kept there for 3 days. For the following 3 days they returned to their home cages (single housing).
Animals received the test compound chronically via the drinking fluid. The reference compound Imipramine was given i.p. (one administration per day, one hour before the respective tests). Fluid supply was restricted to 40 ml per day for all test groups. On the first day of chronic test compound exposure, animals were kept singly in standard single home cages to enable an individual assessment of test compound intake. On the second day, animals were transferred to infrared monitoring cages for 3 days. Food and fluid offer were the same as in the home cage. Measuring rearing activity near fluid bottles and food grid enabled an assessment of the time structure of food and water (compound) consumption. Behavioural observation started one hour before the beginning of the dark phase (2 p.m.). After 22 hours, body weight, food and fluid consumption were measured. 2 hours later, the next recording started.
Raw data were provided as computer files accompanied by written protocol sheets. As the animals were still adapting to the environment and administration the time courses of the following parameters were calculated only for the last day of registration: • Food and fluid intake (time %) • Number of feeding and […] bouts • Meal pattern parameters reflecting e.g. the duration and recurrence of feeding and drinking bouts • Total distance travelled (cm/min) • Small movements (cm/min) • Distance travelled with rapid locomotion (cm/min) • Distance travelled with slow locomotion (cm/min) • Immobility (time %) • Use of available space (%) • Locomotor stereotypies (score, first hour of the dark phase only) • Rearing (time %) • Number of rearing acts (N) Feeding and Drinking Bouts and Bout-Related Analysis:
On the basis of high-resolution infrared beam recordings, feeding and drinking is identified by means of beam interruption in the upper frame near to the positions of food or water. Feeding or drinking acts are then defined as temporally contingent behavioural pattern separated from each other by intervals not longer than 0.5 seconds. Normally, several acts form a feeding or drinking bout. The intervals within a bout are definitely shorter than between subsequent bouts. A threshold interval can be set to distinguish between intra-bout and inter-bout intervals.
Stereotyped locomotion was assessed by means of statistical comparisons between the observed locomotor sequences (as described by the movement from one of the 4×4 subsquares to another) and a “random walk”. The comparison is performed at 5 different levels:
The coefficient of locomotor stereotypies (SC, in %) at each level has a value of SC=0 when there are no regularities within the movement pattern (random walk). […]

[3] abbreviates: circadian registration, Imipramine 15 mg/kg/day i.p., Example 130b approx. 3, 10, 30 mg/kg/day.
Where [4] appears, read: Imipramine 15 mg/kg/day i.p., Example 130b hydrochloride approx. 3, 10, 30 mg/kg/day via drinking fluid.

Where a name gives a salt, the structure may show the parent alone.

Sequence of DP IV (P27487 whole entry): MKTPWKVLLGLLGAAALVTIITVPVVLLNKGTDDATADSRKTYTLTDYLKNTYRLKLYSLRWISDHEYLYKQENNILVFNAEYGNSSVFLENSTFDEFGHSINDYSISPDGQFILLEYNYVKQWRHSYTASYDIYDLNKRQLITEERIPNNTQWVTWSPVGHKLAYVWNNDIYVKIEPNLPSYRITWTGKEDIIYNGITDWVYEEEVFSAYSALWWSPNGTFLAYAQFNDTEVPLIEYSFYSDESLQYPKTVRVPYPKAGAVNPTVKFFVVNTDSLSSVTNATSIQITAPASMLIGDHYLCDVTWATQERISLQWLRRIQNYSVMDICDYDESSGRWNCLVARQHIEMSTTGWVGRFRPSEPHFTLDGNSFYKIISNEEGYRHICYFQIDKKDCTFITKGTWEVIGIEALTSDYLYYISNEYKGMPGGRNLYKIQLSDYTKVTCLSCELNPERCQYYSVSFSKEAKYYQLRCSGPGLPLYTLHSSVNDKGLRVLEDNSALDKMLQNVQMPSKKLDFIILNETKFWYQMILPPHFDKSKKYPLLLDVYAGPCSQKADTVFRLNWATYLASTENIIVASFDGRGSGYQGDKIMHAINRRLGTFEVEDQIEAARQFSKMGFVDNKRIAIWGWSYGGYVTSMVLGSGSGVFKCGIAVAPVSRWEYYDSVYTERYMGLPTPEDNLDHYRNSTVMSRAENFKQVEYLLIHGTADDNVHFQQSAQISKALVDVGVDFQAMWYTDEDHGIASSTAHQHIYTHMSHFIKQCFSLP

`NCc1c(-c2ccc(Cl)cc2Cl)ncn1C(CO)c1ccccc1` (stereo not shown) [Example 126b, 2-[5-aminomethyl-4-(2,4-dichloro-phenyl)-imidazol-1-yl]-2-phenyl-ethanol]: the IC50 in data set [1] was 0.145 µM; against DPII (sodium acetate buffer pH 5.5, Gly-Pro-AMC 1 mM), 20 µM; against DP9 (Gly Pro-AMC 0.25 mM) it was 70.7 µM. Moreover, the affinity at DP IV, expressed as Ki, was 0.0106 µM. The “Selectivity DPII(IC50)/DPIV(Ki)” value at DPII (ratio IC50 DPII / Ki DP IV) is reported as 1,887. Moreover, the “Selectivity DP9(IC50)/DPIV(Ki)” value on DP9 (ratio IC50 DP9 / Ki DP IV) is on record as 6,670. Besides, the “Cytotox 100 μM (%) HEPG2” value in data set [2] (24 h, LDH activity in cell culture media, lysed untreated cells = 100%) was determined as 5.8%. In data set [2] (24 h, LDH of lysed cells, untreated control = 100%), the “Viability 100 μM (%) HEP-G2” value was 118.8%. The same molecule came in with an Observed cytotox in data set [2] (Hep-G2, observation of the cells) of 10% spheric. For the same molecule, the Papp A→B in “Caco-2 transport assay” (apical to basal) was determined as 225 nm/s. The molecule further showed a Papp B→A in the data set “Caco-2 transport assay” (basal to apical) of 165 nm/s. In addition, the Transport result in the data set on Caco-2 monolayer is listed as “good (Papp-values>1e-5 cm/s are assessed as good permeable)”.

On to `CN(C)CCCN1c2ccccc2CCc2ccccc21` [Imipramine, Imipramine Hydrochloride, reference compound], for which the time immobile result in the data set with male Sprague Dawley rats (circadian registration, Imipramine 15 mg/kg/day i.p.) is listed as “spent more time immobile”. Besides, in the data set with male Sprague Dawley rats (setting [3]), the “horizontal and vertical (locomotor) activity” value was “clearly reduced”; the “time accessing food and water (fluid)” value is recorded as “lower amount of time”. Moreover, in the data set with male Sprague Dawley rats (first hour of the dark phase, Imipramine: level 2, 3 and 4 stereotypies, Example 130b: usage of available space or stereotypy index), the “locomotor stereotypies (stereotypy index)” value is listed as “reduction”. In addition, in the data set on male Sprague Dawley rats (setting [4]), the “body weight (gain)” value is listed as “significantly reduced”, the fluid intake result is given as “significantly reduced” and the food intake result is “significantly reduced”.
